Results reported in patent EP1038880B1, “Androstanes and pregnanes for allosteric modulation of GABA receptor” (priority 1994, dated 1995).

System: N.I.H. Swiss-Webster mice
Test: Elevated plus-maze
Format: in vivo
Conditions: 5 min test, ten minutes after injection (Fig. 9A)
Description: The theoretical basis for the elevated plus-maze test is similar to that of the light/dark transition test. […] The apparatus consists of two open-arms and two enclosed-arms. The elevated plus-maze test allows for two measures of anxiety, the number of entries into the open-arms and the time spent on the open-arms, both expressed as a percentage of the total number of entries and time spent in/on both the open-arms and enclosed-arms.
Male N.LH. Swiss-Webster mice (Harlan, Indianapolis, IN) weighing 15-20 g were housed four per cage in polyethylene cages with sawdust bedding. The colony mom was environmentally controlled (22°C) with a 12^- hr light/dark cycle (0600-1800 hr). Food and water were available ad libitum, except during testing. The experiments were run from 0700-1500 hr and groups were counterbalance for time of day effects. Mice were only administered drug or vehicle once.
The apparatus included two open arms perpendicular to two enclosed arms elevated 50 cm from the floor. Each arm was 50 cm long and the walls of the enclosed arms were 40 cm tall. The maze was made completely of black plexiglass. Incandescent 200 W light bulbs were above each of the open arms to produce a strong contrast between the open arms and the enclosed arms.
Ten minutes after an injection, the N.I.H. Swiss-Webster mice were placed in the center of the plus-maze facing an open arm. During the 5 min test period, the number of entries onto the open arms and the enclosed arms, and the time spent in the open arms and enclosed arms were measured. All four paws had to be within an arm for the dependent variable to be measured. Therefore, the time spent in the center of the maze is not counted, so the total time spent in the open arms and the enclosed arms may not equal 5 min.

CC(=O)[C@H]1CC[C@H]2[C@@H]3CC[C@H]4C[C@H](O)CC[C@]4(C)[C@H]3CC[C@]12C [3α-Hydroxy-5α-pregnan-20-one, 3α-hydroxy-5α-pregnan-20-one]
dose producing significant increase in entries into the open-arms: 20 mg/kg
